The target of this test is T1, GFRα1-RET (Homo sapiens, UniProt P56159).
T1 construct: expressed in transfected cells; host or cells: MG87 murine fibroblast
The experiment in a line: Luciferase assay: activation of Elk1 signaling in reporter-gene cells expressing GFRα1-RET (MG87 murine fibroblast stably transfected with PathDetect Elk-1, GFRα1, and RET). It is filed as cell-based. The protocol: The purpose of this experiment was to evaluate the GFRα1-RET activity of the compounds 001-060 according to the invention.
The compounds were tested for their activating activity of Elk1 signaling using the previously developed reporter-gene-based system in cells expressing GFRα1-RET (MG87 murine fibroblast stably transfected with PathDetect Elk-1, GFRα1, and RET) disclosed in Sidorova, Y. A. et al.: “Persephin signaling through GFRα1: The potential for the treatment of Parkinson's disease.” Molecular and Cellular Neuroscience, July 2010, Vol. 44, pp. 223-232. DOI: 10.1016/j.mcn.2010.03.009. For EC50 determination, a dose-response test was performed using 6 concentrations of each tested compound. Dose-response curves were fitted using the sigmoidal dose-response (variable slope) analysis in GraphPad Prism program (Graph Pad Inc) and EC50 of agonist/activator activity was calculated. Dose-response experiments were all performed in duplicate, two times independently.
The compounds were tested for their activating activity of Elk1 signaling using the same materials and methods than for the compounds according to the invention (Example 2 herein, section “Materials and methods”).

[1] abbreviates: Table 4, MG87 murine fibroblasts with PathDetect Elk-1, GFRα1, RET, 6 concentrations, duplicate, two times independently, agonist/activator activity, read-out: Luciferase Assay EC50.
[2] abbreviates: Table 6, comparison with comparative compounds, values for 001, 009, 010 reported from Table 4, MG87 GFRα1-RET cells, read-out: Luciferase Assay EC50.
Where [3] appears, read: text statement on Table 6 results, GFRα1-RET luciferase assay, read-out: EC50.

Like-named read-outs stand apart in the source and are kept apart here.

T1 sequence (P56159 25-429 limits assumed): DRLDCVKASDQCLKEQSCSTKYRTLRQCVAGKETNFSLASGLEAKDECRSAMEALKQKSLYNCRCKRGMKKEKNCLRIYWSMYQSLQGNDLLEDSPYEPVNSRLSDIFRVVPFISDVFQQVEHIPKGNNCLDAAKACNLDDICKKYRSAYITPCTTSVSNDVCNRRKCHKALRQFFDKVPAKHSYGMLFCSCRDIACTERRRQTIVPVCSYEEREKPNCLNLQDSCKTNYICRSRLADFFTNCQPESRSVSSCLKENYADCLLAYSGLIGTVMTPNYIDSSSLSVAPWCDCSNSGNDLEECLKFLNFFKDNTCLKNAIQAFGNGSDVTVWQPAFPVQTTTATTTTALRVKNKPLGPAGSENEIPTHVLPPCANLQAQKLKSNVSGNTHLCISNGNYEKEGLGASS
T1 sequence (P07949 29-1114 partner): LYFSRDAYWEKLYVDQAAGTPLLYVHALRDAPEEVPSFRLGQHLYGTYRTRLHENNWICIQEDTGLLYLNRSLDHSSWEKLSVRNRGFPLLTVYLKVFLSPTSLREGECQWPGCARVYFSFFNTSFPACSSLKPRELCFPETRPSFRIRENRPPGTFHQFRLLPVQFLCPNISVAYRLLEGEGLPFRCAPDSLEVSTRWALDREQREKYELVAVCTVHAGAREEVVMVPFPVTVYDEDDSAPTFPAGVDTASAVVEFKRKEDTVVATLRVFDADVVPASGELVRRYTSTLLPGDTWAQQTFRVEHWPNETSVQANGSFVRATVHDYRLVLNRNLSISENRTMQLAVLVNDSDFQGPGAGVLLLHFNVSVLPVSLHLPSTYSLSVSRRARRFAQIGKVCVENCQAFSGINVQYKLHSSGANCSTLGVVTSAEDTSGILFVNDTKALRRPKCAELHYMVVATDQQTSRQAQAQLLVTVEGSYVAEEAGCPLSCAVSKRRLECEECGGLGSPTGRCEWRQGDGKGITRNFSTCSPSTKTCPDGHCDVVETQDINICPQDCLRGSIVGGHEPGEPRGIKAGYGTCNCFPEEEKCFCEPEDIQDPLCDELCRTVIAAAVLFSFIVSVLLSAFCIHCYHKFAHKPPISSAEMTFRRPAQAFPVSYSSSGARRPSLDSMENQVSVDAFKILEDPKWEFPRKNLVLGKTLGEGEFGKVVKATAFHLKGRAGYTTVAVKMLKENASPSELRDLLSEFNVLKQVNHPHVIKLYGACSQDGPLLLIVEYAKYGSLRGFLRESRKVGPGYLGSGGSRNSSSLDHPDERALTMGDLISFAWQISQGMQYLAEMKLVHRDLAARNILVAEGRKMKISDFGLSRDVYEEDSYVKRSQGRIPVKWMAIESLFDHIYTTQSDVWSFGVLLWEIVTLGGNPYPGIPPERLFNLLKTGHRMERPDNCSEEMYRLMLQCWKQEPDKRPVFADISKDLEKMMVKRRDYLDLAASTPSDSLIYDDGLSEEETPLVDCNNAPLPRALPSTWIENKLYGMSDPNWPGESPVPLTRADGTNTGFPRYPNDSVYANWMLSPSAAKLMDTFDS

The term EC50 denotes the concentration giving half of the maximal effect. Turning to `COc1ccc(S(=O)(=O)N2CCN(CC(C)c3ccccc3)CC2)cc1N1CCN(C(=O)c2ccc(F)cc2Cl)CC1` (racemic) [Compound 053, (2-chloro-4-fluoro-phenyl)-[4-[2-methoxy-5-[4-[rac-(2R)-2-phenylpropyl]piperazin-1-yl]sulfonyl-phenyl]piperazin-1-yl]methanone], the EC50 under setting [1] lay in the range of 1 to 5 µM.

On to `COc1ccc(S(=O)(=O)N2CCN(CC(C)c3ccc(F)cc3)CC2)cc1N1CCN(C(=O)c2ccc(F)cc2Cl)CC1` (racemic) [Compound 054, (2-chloro-4-fluoro-phenyl)-[4-[2-methoxy-5-[4-[rac-(2R)-2-(4-fluorophenyl)propyl]piperazin-1-yl]sulfonyl-phenyl]piperazin-1-yl]methanone], for which the EC50 under setting [1] is under 1 µM.

As to `CCN(CC)S(=O)(=O)c1ccc(OC)c(N2CCN(C(=O)c3ccc(F)cc3Cl)CC2)c1` [Compound 001, 3-[4-(2-chloro-4-fluoro-benzoyl)piperazin-1-yl]-N,N-diethyl-4-methoxy-benzenesulfonamide], the half-maximal effective concentration (EC50) reads like this: under setting [1], 5 to 10 µM; under setting [2], 5 to 10 µM; under setting [3], under 10 µM.

Turning to `CCN(CC)S(=O)(=O)c1ccc(OC)c(N2CCN(C(=O)c3cc(F)c(F)cc3Cl)CC2)c1` [Compound 002, 3-[4-(2-chloro-4,5-difluoro-benzoyl)piperazin-1-yl]-N,N-diethyl-4-methoxy-benzenesulfonamide], the 50% effective concentration (EC50) under setting [1] was 5 to 10 µM.

For `COc1ccc(S(=O)(=O)N2CCCC2)cc1N1CCN(C(=O)c2ccc(Cl)cc2Cl)CC1` [Compound 003, (2,4-dichlorophenyl)-[4-(2-methoxy-5-pyrrolidin-1-ylsulfonyl-phenyl)piperazin-1-yl]methanone], under setting [1], the half-maximal effective concentration (EC50) lay within 10 to 50 µM.

In the case of `COc1ccc(S(=O)(=O)N2CCCC2)cc1N1CCN(C(=O)c2ccc(F)cc2Cl)CC1` [Compound 004, (2-chloro-4-fluoro-phenyl)-[4-(2-methoxy-5-pyrrolidin-1-ylsulfonyl-phenyl)piperazin-1-yl]methanone], the EC50 under setting [1] was 1 to 5 µM.

In the case of `CCCN(C)S(=O)(=O)c1ccc(OC)c(N2CCN(C(=O)c3cc(F)c(F)cc3Cl)CC2)c1` [Compound 005, 3-[4-(2-chloro-4,5-difluoro-benzoyl)piperazin-1-yl]-4-methoxy-N-methyl-N-propyl-benzenesulfonamide], the EC50 under setting [1] was in the range of 1 to 5 µM.

In the case of `CCCN(C)S(=O)(=O)c1ccc(OC)c(N2CCN(C(=O)c3ccc(F)cc3C(F)F)CC2)c1` [Compound 006, 3-[4-[2-(difluoromethyl)-4-fluoro-benzoyl]piperazin-1-yl]-4-methoxy-N-methyl-N-propyl-benzenesulfonamide], the EC50 under setting [1] is 1 to 5 µM.

For `COc1ccc(S(=O)(=O)N2CCC(Cc3ccccc3)CC2)cc1N1CCN(C(=O)c2ccccc2C(F)F)CC1` [Compound 007, [4-[5-[(4-benzyl-1-piperidyl)sulfonyl]-2-methoxy-phenyl]piperazin-1-yl]-[2-(difluoromethyl)phenyl]methanone], the EC50 under setting [1] was 1 to 5 µM.

On to `COc1ccc(S(=O)(=O)N2CCC(Cc3ccccc3)CC2)cc1N1CCN(C(=O)c2ncc(F)cc2Cl)CC1` [Compound 008, [4-[5-[(4-benzyl-1-piperidyl)sulfonyl]-2-methoxy-phenyl]piperazin-1-yl]-(3-chloro-5-fluoro-2-pyridyl)methanone], for which the EC50 under setting [1] lay in the range of 5 to 10 µM.

As for `COc1ccc(S(=O)(=O)N2CCC(Cc3ccccc3)CC2)cc1N1CCN(C(=O)c2cc(F)c(F)cc2Cl)CC1` [Compound 009, [4-[5-[(4-benzyl-1-piperidyl)sulfonyl]-2-methoxy-phenyl]piperazin-1-yl]-(2-chloro-4,5-difluoro-phenyl)methanone], the EC50 reads like this: under setting [1], under 1 µM; under setting [2], under 1 µM; under setting [3], under 10 µM.

For `COc1ccc(S(=O)(=O)N2CCC(Cc3ccccc3)CC2)cc1N1CCN(C(=O)c2ccc(F)cc2C(F)F)CC1` [Compound 010, [4-[5-[(4-benzyl-1-piperidyl)sulfonyl]-2-methoxy-phenyl]piperazin-1-yl]-[2-(difluoromethyl)-4-fluoro-phenyl]methanone], the EC50 was 1 to 5 µM under setting [1], 1 to 5 µM under setting [2] and under 10 µM under setting [3].

On to `COc1ccc(S(=O)(=O)N2CCC(O)(c3ccccc3)CC2)cc1N1CCN(C(=O)c2ccc(F)cc2Cl)CC1` [Compound 011, (2-chloro-4-fluoro-phenyl)-[4-[5-[(4-hydroxy-4-phenyl-1-piperidyl)sulfonyl]-2-methoxy-phenyl]piperazin-1-yl]methanone], for which the 50% effective concentration (EC50) under setting [1] was in the range of 5 to 10 µM.

Regarding `COc1ccc(S(=O)(=O)N2CCC(O)(Cc3ccccc3)CC2)cc1N1CCN(C(=O)c2ccc(F)cc2Cl)CC1` [Compound 012, [4-[5-[(4-benzyl-4-hydroxy-1-piperidyl)sulfonyl]-2-methoxy-phenyl]piperazin-1-yl]-(2-chloro-4-fluoro-phenyl)methanone], the EC50 under setting [1] is 5 to 10 µM.

As for `COc1ccc(S(=O)(=O)N2CCN(Cc3ccccc3)CC2)cc1N1CCN(C(=O)c2ccc(F)cc2Cl)CC1` [Compound 013, [4-[5-(4-benzylpiperazin-1-yl)sulfonyl-2-methoxy-phenyl]piperazin-1-yl]-(2-chloro-4-fluoro-phenyl)methanone], the EC50 under setting [1] was 5 to 10 µM.

On to `COc1ccc(S(=O)(=O)N(C)CC2CCC2)cc1N1CCN(C(=O)c2ccc(F)cc2Cl)CC1` [Compound 014, 3-[4-(2-chloro-4-fluoro-benzoyl)piperazin-1-yl]-N-(cyclobutylmethyl)-4-methoxy-N-methyl-benzenesulfonamide], for which, under setting [1], the EC50 was 5 to 10 µM.

Turning to `COc1ccc(S(=O)(=O)N(C)CC2CCCCC2)cc1N1CCN(C(=O)c2ccc(F)cc2Cl)CC1` [Compound 015, 3-[4-(2-chloro-4-fluoro-benzoyl)piperazin-1-yl]-N-(cyclohexylmethyl)-4-methoxy-N-methyl-benzenesulfonamide], under setting [1], the 50% effective concentration (EC50) was in the range of 5 to 10 µM.

For the compound `COc1ccc(S(=O)(=O)N(C)C2CCCC2)cc1N1CCN(C(=O)c2ccc(F)cc2Cl)CC1` [Compound 016, 3-[4-(2-chloro-4-fluoro-benzoyl)piperazin-1-yl]-N-cyclopentyl-4-methoxy-N-methyl-benzenesulfonamide], the EC50 under setting [1] fell in the range of 5 to 10 µM.

Turning to `COc1ccc(S(=O)(=O)N(C)C2CCCCC2)cc1N1CCN(C(=O)c2ccc(F)cc2Cl)CC1` [Compound 017, 3-[4-(2-chloro-4-fluoro-benzoyl)piperazin-1-yl]-N-cyclohexyl-4-methoxy-N-methyl-benzenesulfonamide], under setting [1], the EC50 was 1 to 5 µM.

On to `COc1ccc(S(=O)(=O)N(C)C2(C)COC2)cc1N1CCN(C(=O)c2ccc(F)cc2Cl)CC1` [Compound 018, 3-[4-(2-chloro-4-fluoro-benzoyl)piperazin-1-yl]-4-methoxy-N-methyl-N-(3-methyloxetan-3-yl)benzenesulfonamide], for which the EC50 under setting [1] lay within 10 to 50 µM.

In the case of `COc1ccc(S(=O)(=O)N(C)Cc2ccccc2)cc1N1CCN(C(=O)c2ccc(F)cc2Cl)CC1` [Compound 019, N-benzyl-3-[4-(2-chloro-4-fluoro-benzoyl)piperazin-1-yl]-4-methoxy-N-methyl-benzenesulfonamide], the EC50 under setting [1] is 10 to 50 µM.

`COc1ccc(S(=O)(=O)N(C)Cc2cccc(Cl)c2)cc1N1CCN(C(=O)c2ccc(F)cc2Cl)CC1` [Compound 020, 3-[4-(2-chloro-4-fluoro-benzoyl)piperazin-1-yl]-N-[(3-chlorophenyl)methyl]-4-methoxy-N-methyl-benzenesulfonamide]: under setting [1], the EC50 is 1 to 5 µM.
